Reference: patent publication US12612372B2, “Oxopyridazinyl-phenyl-carbonohydrazonoyl dicyanide compound and use thereof” (KOREA INSTITUTE OF SCIENCE AND TECHNOLOGY, priority 2020, dated 2026)
Read-outs that look alike come from different tables or passages of the source.

Key:
Tau-BiFC cells = assay: Cell viability (stained nuclei count) in tau-BiFC cells
Experimental: (§1) In order to select novel tau protein aggregation—inhibiting substances, tau-BiFC cell model, in which formation of tau oligomers in living cells is easily observed, was used. Tau-BiFC cells were aliquoted into a 384-well plate. […] After 48 hours, nuclei in the cells were stained using Hoechst (at a treatment concentration of 2 μg/mL), and BiFC fluorescence intensity was automatically measured using Operetta (PerkinElmer) to count stained nuclei in each well out of the entire well plate. […] Furthermore, the degree of cytotoxicity induced by the newly synthesized compound was also measured based on the 100% cell viability of the group treated only with Forskolin as a reference, and the cytotoxicity value of each compound was calculated using the equation “(number of stained nuclei in group treated with compound/number of stained nuclei in group treated with Forskolin)×100”.
(§2) After 48 hours, tau protein aggregation reaction and degrees of cytotoxicity were analyzed by observing images of the cells. IC50 and toxicity of the compounds were analyzed by nonlinear regression analysis of Prism software (Graph Pad).

tau protein = biological target: T1, tau protein (Homo sapiens, UniProt P10636); assay: Tau-BiFC cell model, Forskolin-induced tau protein aggregation; assay type: cell-based; settings: for Tau BiFC in cells Response (%, @10 μM): 10 μM compound, BiFC fluorescence relative to Forskolin-only group (100% tau protein-aggregated state)
T1 construct: fused on or other part: Split Venus fragments VN173 and VC155, each fused to one copy of tau as BiFC reporter halves
Experimental: as §1, §2

[1] = 10 μM compound, stained nuclei relative to Forskolin-only group (100%), 48 hours
[2] = tau-BiFC cells, Forskolin 30 μM, 48 hours, read-out: Tau BiFC in cells IC50

T1 sequence (P10636 2-441 isoform P10636-8 limits assumed): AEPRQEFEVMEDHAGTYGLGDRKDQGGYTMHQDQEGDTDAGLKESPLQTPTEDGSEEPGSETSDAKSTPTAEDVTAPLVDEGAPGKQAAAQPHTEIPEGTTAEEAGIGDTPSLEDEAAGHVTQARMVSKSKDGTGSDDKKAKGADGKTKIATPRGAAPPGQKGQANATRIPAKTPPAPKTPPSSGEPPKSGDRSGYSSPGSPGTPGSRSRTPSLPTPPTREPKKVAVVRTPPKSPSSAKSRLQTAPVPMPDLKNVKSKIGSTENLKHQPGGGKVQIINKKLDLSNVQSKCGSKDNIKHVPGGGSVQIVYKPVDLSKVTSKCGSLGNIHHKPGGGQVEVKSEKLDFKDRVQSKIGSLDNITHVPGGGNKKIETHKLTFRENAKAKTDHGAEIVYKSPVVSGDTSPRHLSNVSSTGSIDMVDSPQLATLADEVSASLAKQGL

SMILES | Cell viability (%, @10 μM) (Tau-BiFC cells; [1]) | Tau BiFC in cells Response (%, @10 μM) (tau protein; 48 hours) | IC50 (tau protein; Tau BiFC in cells IC50, tau-BiFC cells, Forskolin 30 μM, 48 hours) | IC50 (tau protein; [2]) | Cell viability (%, @10 μM) (Tau-BiFC cells; 48 h, 10 μM) | IC50 (tau protein)
N#CC(C#N)=NNc1ccc(-c2ccc(=O)[nH]n2)cc1 [Comparative Example 1, reference compound] | 130.3% | 10.1% | 16.8 µM | – | – | –
Cc1cc(=O)[nH]nc1-c1ccc(NN=C(C#N)C#N)cc1 [Comparative Example 2, reference compound] | 128.6% | 1.8% | – | 3.5 µM | – | –
Cc1cc(-c2ccc(NN=C(C#N)C#N)cc2)n[nH]c1=O [Comparative Example 3, reference compound] | 113.1% | 37.11% | – | > 10 µM | – | –
CC1CC(=O)NN=C1c1ccc(NN=C(C#N)C#N)cc1 (stereo not drawn) [Comparative Example 4, reference compound] | 120.3% | 45.7% | – | > 10 µM | – | –
N#CC(C#N)=NNc1ccc(-n2ncccc2=O)cc1 [Comparative Example 5, reference compound] | 124.2% | 35.1% | – | > 10 µM | – | –
Cc1ccc(=O)n(-c2ccc(NN=C(C#N)C#N)cc2)n1 [Comparative Example 6, reference compound] | 114.9% | 46.7% | – | > 10 µM | – | –
Cc1cnn(-c2ccc(NN=C(C#N)C#N)cc2)c(=O)c1 [Comparative Example 7, reference compound] | 102.3% | 19.4% | – | 4.5 µM | – | –
Cc1ccnn(-c2ccc(NN=C(C#N)C#N)cc2)c1=O [Comparative Example 8, reference compound] | – | 0% | – | 2.5 µM | 110.1% | –
COc1ccc(N2N=C(c3ccc(NN=C(C#N)C#N)cc3)C(C)CC2=O)cc1 (stereo not drawn) [Example 7, (4-(1-(4-methoxyphenyl)-4-methyl-6-oxo-1,4,5,6-tetrahydropyridazin-3-yl)phenyl)carbonohydrazonoyl dicyanide] | 89.3% | 2.3% | – | – | – | 0.94 µM
C[C@@H]1CC(=O)NN=C1c1ccc(NN=C(C#N)C#N)cc1 [Levosimendan, reference compound] | 73.21% | 9.58% | – | 1.44 µM | – | –
